Values joined by “and” are separate entries in the source; they are usually repeats but may differ in a detail not shown here. Identical values can stand only once.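 These data come from cells grown in 96-well plates and exposed to compound for 48 hours at five concentrations. The concentration for 50% growth inhibition is given as GI50. TGI: concentration producing complete growth inhibition.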
Tests used:
Experiment in all cases: NCI-60 cell line screen, 48 h
[1] = system: EKVX NSCLC
[2] = system: NCI-H226 lung
[3] = system: PC-3 prostate
[4] = system: CAKI-1 renal
[5] = system: BT-549 breast
[6] = system: HOP-62 NSCLC
[7] = system: DU-145 prostate
[8] = system: HT29 colon
[9] = system: KM12 colon
[10] = system: TK-10 renal

| Structure (SMILES) | GI50 [1] | TGI [1] | GI50 [2] | TGI [2] | GI50 [3] | TGI [3] | GI50 [4] | TGI [4] | GI50 [5] | TGI [5] | GI50 [6] | TGI [6] | GI50 [7] | TGI [7] | GI50 [8] | TGI [8] | GI50 [9] | TGI [9] | GI50 [10] | TGI [10] |
| --- | --- | --- | --- | --- | --- | --- | --- | --- | --- | --- | --- | --- | --- | --- | --- | --- | --- | --- | --- | --- |
| O=C(Cc1csc2nc(-c3ccc(Br)cc3)cn12)N/N=C/c1ccc(Cl)cc1Cl | 31.6 µM | > 100 µM | 31.8 µM | 92.2 µM | 30.2 µM | > 100 µM | 36.1 µM | > 100 µM | 25.9 µM | 76.9 µM | 16.6 µM | 35 µM | 26.3 µM | > 100 µM | 40.8 µM | > 100 µM | 38.2 µM | > 100 µM | – | – |
| O=C(NO)c1ccc(Cn2c(=O)n(-c3ccccc3)c(=O)c3ccccc32)cc1 | 1.11 µM | 2.69 µM | 1.32 µM | 2.91 µM | 1.72 µM | 4.53 µM | 2.81 µM | 12.3 µM | 1.55 µM | 3.92 µM | 1.32 µM | 3.24 µM | 0.773 µM | > 100 µM | 1.83 µM | 47.9 µM | 1.11 µM | 2.73 µM | 1.02 µM | 8.08 µM |
| COC1C(CO)OC(n2c3c(Cl)cccc3c3c4c(c5c6cccc(Cl)c6[nH]c5c32)C(=O)NC4=O)C(O)C1O (stereo unspecified) | – | > 100 µM | – | 0.666 µM | – | > 100 µM | – | 0.565 µM | – | 12.4 µM | – | 6.63 µM | – | 3.29 µM | – | > 47.3 µM | – | > 58.6 µM | – | 19.7 µM |
| COc1cnc2c(c1)C(=O)c1c-2n(CCCNCCN2CCOCC2)c(=O)c2cc([N+](=O)[O-])ccc12 | 0.446 µM | 3.5 µM | – | – | 0.568 µM | 13 µM | 0.0433 µM | 7.31 µM | 0.286 µM | 4.13 µM | 0.15 µM | 1.08 µM | 0.0608 µM | 1.12 µM | 0.154 µM | 1.31 µM | 0.399 µM | 3.57 µM | 0.73 µM | 3.17 µM |
| CN(C)c1ccc2cc3ccc(N(C)C)cc3nc2c1 | – | 7.21 µM | – | 19.9 µM | – | 9.48 µM | – | 13.5 µM | – | 22.1 µM | – | 7.18 µM | – | 4.29 µM | – | 1.81 µM | – | 1.85 µM | – | 9.21 µM |
| C[C@@H](Oc1cc(-n2cnc3ccc(OCC4CCN(C)CC4)cc32)sc1C(N)=O)c1ccccc1Cl | 0.158 µM | 4.96 µM | 0.674 µM | 4.81 µM | 0.136 µM | 4.42 µM | 0.774 µM | 4.81 µM | 0.397 µM | 3.58 µM | 0.0977 µM | 3.55 µM | 0.0528 µM | 0.141 µM | 0.0108 µM | 2.68 µM | 0.0507 µM | 2.73 µM | 0.583 µM | 5.13 µM |
| CN(C)c1ccc(Nc2c3ccccc3nc3cc(NC(=O)CCN4CCCC4)ccc23)cc1 | 0.964 µM | 2.62 µM | 0.577 µM | 2.59 µM | 0.577 µM | 2.17 µM | 0.594 µM | 2.19 µM | 1.3 µM | 2.73 µM | 0.235 µM | 1.56 µM | 0.155 µM | 1.19 µM | 0.475 µM | 2.06 µM | 0.497 µM | 1.88 µM | 1.13 µM | 3 µM |
| Cc1ccc2nc3c(n2c1)C(=O)C(=O)c1ccccc1-3 | 0.654 µM | 1.65 µM | 0.371 µM | 1.29 µM | 0.59 µM | 3.81 µM | 1.28 µM | 2.71 µM | 0.168 µM | 0.307 µM | 0.353 µM | 0.961 µM | 0.288 µM | 1.12 µM | 1.74 µM | – | 0.574 µM | 8.28 µM | 1.28 µM | 2.9 µM |
| CCCCCCCCCCC[C@@H](C[C@H]1OC(=O)[C@H]1CCCCCC)OC(=O)[C@@H](CC(C)C)NC=O | 27.4 µM | > 100 µM | 2.1 µM | 7.91 µM | 2.78 µM | 22.8 µM | 5.5 µM | > 100 µM | 1.9 µM | 15.9 µM | 4.14 µM | 29.5 µM | 16.7 µM | > 100 µM | 3.18 µM | 35.6 µM | 3.92 µM | 34.6 µM | 32.8 µM | > 100 µM |
| CNC(=O)c1cc(Oc2ccc3nc(N[C@@H]4CCCC[C@H]4O)sc3c2)ccn1 | 38.2 µM | > 100 µM | 61.9 µM | > 100 µM | 33.7 µM | > 100 µM | 44.9 µM | > 100 µM | 31.8 µM | > 100 µM | > 67.3 µM | > 100 µM | 71.8 µM | > 100 µM | 97.8 µM | > 100 µM | 66.3 µM | > 100 µM | > 100 µM | > 100 µM |
| O=C(c1nn(-c2ccc(Cl)cc2)cc1O)n1nc(C(F)(F)F)cc1-c1ccccc1 | 2 µM | > 100 µM | 2.17 µM | > 40.7 µM | 13.9 µM | > 100 µM | 1.89 µM | > 36.8 µM | 1.12 µM | > 100 µM | 1.84 µM | > 76.9 µM | 8.47 µM | > 100 µM | 4.07 µM | > 83.8 µM | 5.09 µM | > 100 µM | 1.41 µM | > 100 µM |
| O=C(Nc1ccc(Nc2ccncc2)cc1)c1ccc(Nc2ccnc3ccc([N+](=O)[O-])cc23)cc1[N+](=O)[O-] | 22.5 µM | > 100 µM | 37.5 µM | > 93.9 µM | 5.05 µM | > 40 µM | > 39.6 µM | > 83.2 µM | > 78.5 µM | > 100 µM | 24.8 µM | > 100 µM | 5.55 µM | 25.5 µM | 45.4 µM | > 100 µM | 6.47 µM | > 100 µM | 27.9 µM | > 80.2 µM |
| OCCn1cc(-c2cnc3nnn(Cc4ccc5ncccc5c4)c3n2)cn1 | > 100 µM | > 100 µM | > 100 µM | > 100 µM | > 100 µM | > 100 µM | > 100 µM | > 100 µM | > 100 µM | > 100 µM | > 100 µM | > 100 µM | > 100 µM | > 100 µM | > 100 µM | > 100 µM | > 100 µM | > 100 µM | > 100 µM | > 100 µM |
| Fc1cccc(Cl)c1Cn1c(-c2c(F)cccc2Cl)nc2ccccc21 | 13.3 µM | 32.6 µM | 22 µM | 57.8 µM | 14.7 µM | 55.3 µM | 24 µM | 47.5 µM | 25.4 µM | 53.2 µM | 23.2 µM | 50.6 µM | 24.6 µM | 56.1 µM | 30 µM | > 100 µM | 14.6 µM | 42.4 µM | 15.6 µM | 39.8 µM |
| O=C1/C(=C/c2ccc(Cl)cc2)CCC1CN1CCOCC1 (stereo unspecified) | – | 30.7 µM | – | 42.3 µM | – | 18.5 µM | – | 9.46 µM | – | 26 µM | – | 35.1 µM | – | 16.1 µM | – | 23 µM | – | 10.4 µM | – | 18.3 µM |
| COc1cc(-c2nc(-c3ccc(-c4nc5ccc(F)cc5[nH]4)cc3)no2)cc(OC)c1OC | 3.45 µM | 27.4 µM | 2.72 µM | 10.7 µM | 2.33 µM | 7.59 µM | 2.76 µM | 9.13 µM | 3.49 µM | 11.1 µM | 3.21 µM | 9.15 µM | 3.96 µM | 15.3 µM | 3.69 µM | 17.7 µM | 3.08 µM | 8.98 µM | 8.27 µM | 34.1 µM |
| CCCCCCCCNC(C)C(O)c1ccc(SC(C)C)cc1 (stereo unspecified) | 1.44 µM | 2.98 µM | 1.81 µM | 3.85 µM | 1.58 µM | 3.02 µM | 1.54 µM | 3.08 µM | 1.82 µM | 3.33 µM | 1.53 µM | 2.87 µM | 1.86 µM | 3.27 µM | 0.654 µM | 1.91 µM | 1.76 µM | 3.18 µM | 1.7 µM | 3.13 µM |
| O=C1CCSC(=S)N1c1ccc(Br)c(Cl)c1 | – | > 100 µM | – | 63.9 µM | – | > 100 µM | – | 77.4 µM | – | 41.1 µM | – | > 100 µM | – | > 100 µM | – | 33.8 µM | – | 85.9 µM | – | 78.2 µM |
| COc1ccc(C2=N[C@@H](c3ccc(Cl)cc3)[C@@H](c3ccc(Cl)cc3)N2C(=O)N2CCNC(=O)C2)c(OC(C)C)c1 | 10.3 µM and 12.1 µM and 12.9 µM | 24.1 µM and 25.2 µM and 27.3 µM | 13.7 µM and 1.57 µM and 1.56 µM | 30.2 µM and 6.83 µM and 5.86 µM | 11.2 µM and 11.1 µM and 12.3 µM | 26.7 µM and 24.9 µM and 28 µM | 11.7 µM and 1.63 µM and 2.35 µM | 24.7 µM and 12.9 µM and 14.5 µM | 12.6 µM and 14.9 µM and 15.4 µM | 25.7 µM and 29.2 µM and 29.9 µM | 16.5 µM and 15 µM and 16.1 µM | 31.1 µM and 30.5 µM and 33.3 µM | 15.2 µM and 15.8 µM and 16.6 µM | 28.7 µM and 29.3 µM and 30.3 µM | 14.9 µM and 14.4 µM and 14.2 µM | 31.4 µM and 28.2 µM and 29.1 µM | 15.9 µM | 32 µM and 30 µM and 30.6 µM | 16.1 µM and 14.6 µM and 14.8 µM | 29.9 µM and 27.7 µM and 28 µM |
| CC(=O)Nc1ccc(-c2csc(Nc3cccc(-c4csc(-c5ccccc5)n4)c3)n2)cc1 | 20.2 µM | > 50 µM | – | – | 14.7 µM | > 50 µM | 17.5 µM | > 50 µM | 22.5 µM | > 50 µM | > 50 µM | > 50 µM | 22.2 µM | > 50 µM | – | – | 24 µM | > 50 µM | 19.7 µM | > 50 µM |
